Results reported in PubChem BioAssay AID1963847 (Molecular Pharmacology Branch, DTP, NCI, 2024).

Test system: 415267-285-R-J2-PDC complex spheroid viability
Assay: Anticancer human tumor 415267-285-R-J2-PDC patient-derived breast carcinoma cell line growth inhibition [POLQ]
Settings: for IC50: curve of first compound; for viability, T/C: stronger effect = lower value
In short: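 Growth inhibition in 3D: complex spheroids (tumor PDC, HUVEC, MSC) treated with POLQ inhibitor combinations; where Cmax unknown, highest tested concentration 10 microM, except SN-38 at 1 microM.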

[1] = second compound 0.0316 µM, first compound 0.0316 µM
[2] = second compound 0.0316 µM, first compound 0.1 µM
[3] = second compound 0.0316 µM, first compound 0.316 µM
[4] = second compound 0.0316 µM, first compound 1 µM
[5] = second compound 0.0316 µM, first compound 3.16 µM
[6] = second compound 0.0316 µM, first compound 10 µM
[7] = second compound 0.1 µM, first compound 0.0316 µM
[8] = second compound 0.1 µM, first compound 0.1 µM
[9] = second compound 0.1 µM, first compound 0.316 µM
[10] = second compound 0.1 µM, first compound 1 µM
[11] = second compound 0.1 µM, first compound 3.16 µM
[12] = second compound 0.1 µM, first compound 10 µM
[13] = second compound 0.316 µM, first compound 0.0316 µM
[14] = second compound 0.316 µM, first compound 0.1 µM
[15] = second compound 0.316 µM, first compound 0.316 µM
[16] = second compound 0.316 µM, first compound 1 µM
[17] = second compound 0.316 µM, first compound 3.16 µM
[18] = second compound 0.316 µM, first compound 10 µM
[19] = second compound 1 µM, first compound 0.0316 µM
[20] = second compound 1 µM, first compound 0.1 µM
[21] = second compound 1 µM, first compound 0.316 µM
[22] = second compound 1 µM, first compound 1 µM
[23] = second compound 1 µM, first compound 3.16 µM
[24] = second compound 1 µM, first compound 10 µM
[25] = second compound 3.16 µM, first compound 0.0316 µM
[26] = second compound 3.16 µM, first compound 0.1 µM
[27] = second compound 3.16 µM, first compound 0.316 µM
[28] = second compound 3.16 µM, first compound 1 µM
[29] = second compound 3.16 µM, first compound 3.16 µM
[30] = second compound 3.16 µM, first compound 10 µM
[31] = second compound 10 µM, first compound 0.0316 µM
[32] = second compound 10 µM, first compound 0.1 µM
[33] = second compound 10 µM, first compound 0.316 µM
[34] = second compound 10 µM, first compound 1 µM
[35] = second compound 10 µM, first compound 3.16 µM
[36] = second compound 10 µM, first compound 10 µM
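Note: spheroids exposed to compounds for one week before readout.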
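Throughout, for viability, T/C: luminescence used as stand-in measure of viable cells; 100% = DMSO vehicle control viability.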

## CC1COCCN1c1cc(C2(S(C)(=N)=O)CC2)nc(-c2ccnc3[nH]ccc23)n1 (stereo not drawn) + COC1C(OC(N)=O)C(O)C(Oc2ccc3c(O)c(NC(=O)c4ccc(O)c(CC=C(C)C)c4)c(=O)oc3c2C)OC1(C)C
Second compound 0.0316 µM
  IC50: 463 nM
Second compound 0.1 µM
  IC50: 432 nM
Second compound 0.316 µM
  IC50: 504 nM
Second compound 1 µM
  IC50: 512 nM
Second compound 3.16 µM
  IC50: 591 nM
Second compound 10 µM
  IC50: 513 nM
[1]
  viability, T/C: 105%
[2]
  viability, T/C: 108%
[3]
  viability, T/C: 67.2%
[4]
  viability, T/C: 14.9%
[5]
  viability, T/C: 6.29%
[6]
  viability, T/C: 4.89%
[7]
  viability, T/C: 105%
[8]
  viability, T/C: 96.6%
[9]
  viability, T/C: 65.3%
[10]
  viability, T/C: 9.55%
[11]
  viability, T/C: 5.9%
[12]
  viability, T/C: 4.32%
[13]
  viability, T/C: 95.4%
[14]
  viability, T/C: 96.3%
[15]
  viability, T/C: 76.2%
[16]
  viability, T/C: 11.6%
[17]
  viability, T/C: 7.22%
[18]
  viability, T/C: 5.59%
[19]
  viability, T/C: 93.2%
[20]
  viability, T/C: 97.7%
[21]
  viability, T/C: 76.2%
[22]
  viability, T/C: 13.5%
[23]
  viability, T/C: 10%
[24]
  viability, T/C: 4.78%
[25]
  viability, T/C: 95%
[26]
  viability, T/C: 105%
[27]
  viability, T/C: 89.8%
[28]
  viability, T/C: 16.4%
[29]
  viability, T/C: 6.8%
[30]
  viability, T/C: 4.43%
[31]
  viability, T/C: 97.5%
[32]
  viability, T/C: 97.9%
[33]
  viability, T/C: 76.5%
[34]
  viability, T/C: 13.5%
[35]
  viability, T/C: 6.73%
[36]
  viability, T/C: 5.32%

## CC(C)n1c(=O)n(C)c2cnc3cc(F)c(-c4ccc(OCCCN5CCCCC5)nc4)cc3c21 + Nc1ccc(C#CCN(C(=O)Cc2ncc(C(F)(F)F)cc2C(F)(F)F)c2ccc(F)cc2)nn1
Second compound 0.0316 µM
  IC50: > 10000 nM
Second compound 0.1 µM
  IC50: > 10000 nM
Second compound 0.316 µM
  IC50: > 10000 nM
Second compound 1 µM
  IC50: > 10000 nM
Second compound 3.16 µM
  IC50: > 10000 nM
Second compound 10 µM
  IC50: > 10000 nM
[1]
  viability, T/C: 102%
[2]
  viability, T/C: 107%
[3]
  viability, T/C: 105%
[4]
  viability, T/C: 122%
[5]
  viability, T/C: 104%
[6]
  viability, T/C: 103%
[7]
  viability, T/C: 103%
[8]
  viability, T/C: 105%
[9]
  viability, T/C: 108%
[10]
  viability, T/C: 96.1%
[11]
  viability, T/C: 101%
[12]
  viability, T/C: 97.6%
[13]
  viability, T/C: 102%
[14]
  viability, T/C: 113%
[15]
  viability, T/C: 101%
[16]
  viability, T/C: 105%
[17]
  viability, T/C: 103%
[18]
  viability, T/C: 108%
[19]
  viability, T/C: 102%
[20]
  viability, T/C: 105%
[21]
  viability, T/C: 96.4%
[22]
  viability, T/C: 101%
[23]
  viability, T/C: 111%
[24]
  viability, T/C: 108%
[25]
  viability, T/C: 101%
[26]
  viability, T/C: 107%
[27]
  viability, T/C: 110%
[28]
  viability, T/C: 111%
[29]
  viability, T/C: 108%
[30]
  viability, T/C: 115%
[31]
  viability, T/C: 108%
[32]
  viability, T/C: 109%
[33]
  viability, T/C: 117%
[34]
  viability, T/C: 126%
[35]
  viability, T/C: 106%
[36]
  viability, T/C: 117%

## COc1cc2cc(C(=O)CCC(=O)O)sc2cc1OC + Nc1ccc(C#CCN(C(=O)Cc2ncc(C(F)(F)F)cc2C(F)(F)F)c2ccc(F)cc2)nn1
Second compound 0.0316 µM
  IC50: > 10000 nM
Second compound 0.1 µM
  IC50: > 10000 nM
Second compound 0.316 µM
  IC50: > 10000 nM
Second compound 1 µM
  IC50: > 10000 nM
Second compound 3.16 µM
  IC50: > 10000 nM
Second compound 10 µM
  IC50: > 10000 nM
[1]
  viability, T/C: 108%
[2]
  viability, T/C: 95.4%
[3]
  viability, T/C: 93.7%
[4]
  viability, T/C: 97.3%
[5]
  viability, T/C: 93.8%
[6]
  viability, T/C: 97.3%
[7]
  viability, T/C: 111%
[8]
  viability, T/C: 105%
[9]
  viability, T/C: 94.2%
[10]
  viability, T/C: 98.2%
[11]
  viability, T/C: 92.5%
[12]
  viability, T/C: 95.1%
[13]
  viability, T/C: 111%
[14]
  viability, T/C: 103%
[15]
  viability, T/C: 91.8%
[16]
  viability, T/C: 89.9%
[17]
  viability, T/C: 98.9%
[18]
  viability, T/C: 85.9%
[19]
  viability, T/C: 103%
[20]
  viability, T/C: 88.9%
[21]
  viability, T/C: 96.6%
[22]
  viability, T/C: 102%
[23]
  viability, T/C: 96.5%
[24]
  viability, T/C: 91.2%
[25]
  viability, T/C: 105%
[26]
  viability, T/C: 92%
[27]
  viability, T/C: 101%
[28]
  viability, T/C: 98.9%
[29]
  viability, T/C: 94.3%
[30]
  viability, T/C: 109%
[31]
  viability, T/C: 101%
[32]
  viability, T/C: 97.4%
[33]
  viability, T/C: 100%
[34]
  viability, T/C: 106%
[35]
  viability, T/C: 97.9%
[36]
  viability, T/C: 96.5%

## COc1cccc2c1C(=O)c1c(O)c3c(c(O)c1C2=O)CC(O)(C(=O)CO)CC3OC1CC(N)C(O)C(C)O1 (stereo not drawn) + COC1C(OC(N)=O)C(O)C(Oc2ccc3c(O)c(NC(=O)c4ccc(O)c(CC=C(C)C)c4)c(=O)oc3c2C)OC1(C)C
Second compound 0.0316 µM
  IC50: 44.6 nM
Second compound 0.1 µM
  IC50: 37.5 nM
Second compound 0.316 µM
  IC50: 35.2 nM
Second compound 1 µM
  IC50: < 31.6 nM
Second compound 3.16 µM
  IC50: 39 nM
Second compound 10 µM
  IC50: 44 nM
[1]
  viability, T/C: 66.1%
[2]
  viability, T/C: 12.3%
[3]
  viability, T/C: 5.33%
[4]
  viability, T/C: 1.27%
[5]
  viability, T/C: 0.99%
[6]
  viability, T/C: 3%
[7]
  viability, T/C: 55.7%
[8]
  viability, T/C: 17.9%
[9]
  viability, T/C: 5.82%
[10]
  viability, T/C: 0.96%
[11]
  viability, T/C: 1.01%
[12]
  viability, T/C: 2.7%
[13]
  viability, T/C: 54.2%
[14]
  viability, T/C: 12%
[15]
  viability, T/C: 4.95%
[16]
  viability, T/C: 0.99%
[17]
  viability, T/C: 0.89%
[18]
  viability, T/C: 2.53%
[19]
  viability, T/C: 48.8%
[20]
  viability, T/C: 11.6%
[21]
  viability, T/C: 5.43%
[22]
  viability, T/C: 1.06%
[23]
  viability, T/C: 1.03%
[24]
  viability, T/C: 2.68%
[25]
  viability, T/C: 58.4%
[26]
  viability, T/C: 12.5%
[27]
  viability, T/C: 4.68%
[28]
  viability, T/C: 1.06%
[29]
  viability, T/C: 1.25%
[30]
  viability, T/C: 2.55%
[31]
  viability, T/C: 63.9%
[32]
  viability, T/C: 16%
[33]
  viability, T/C: 5.78%
[34]
  viability, T/C: 1.44%
[35]
  viability, T/C: 1.38%
[36]
  viability, T/C: 3.32%
